Assays:
[1] = Metabolic stability in human liver microsomes (in vitro t1/2); assay type: in vitro ADME; conditions: human liver microsomes 0.5 mg/mL, 2 μM compound; for Human microsome % 60 min: % remaining at 60 min; for Human microsome t1/2, min: in vitro t1/2
Procedure: (§1) Metabolic Stability Assays The following are assays that may be used to evaluate the metabolic stability of compounds of Formula (I) in human, rat, or mouse microsomes. The assays follow a common procedure recited below. 1. […] Two separated experiments were performed as follows. a) With NADPH: 10 μL of 20 mg/mL liver microsomes and 40 μL of 10 mM NADPH were added to the incubations. […] The final concentration of microsomes was 0.5 mg/mL. 3. The reaction was started with the addition of 4 μL of 200 μM control compound or test compound solutions. Verapamil was used as positive control in this study. The final concentration of test compound or control compound was 2 μM. 4. Aliquots of 50 μL were taken from the reaction solution at 0, 15, 30, 45 and 60 min. […] Samples were centrifuged at 3,220 g for 40 minutes. A 90 μL aliquot of the supernatant was mixed with 90 μL of ultra-pure H2O and then used for LC-MS/MS analysis. 5. Data analysis. All calculations were carried out using Microsoft Excel. Peak areas were determined from extracted ion chromatograms. The slope value, k, was determined by linear regression of the natural logarithm of the remaining percentage of the parent drug vs. incubation time curve. The in vitro half-life (in vitro t1/2) was determined from the slope value: in vitro t1/2=−(0.693)/k.

[2] = Metabolic stability in rat liver microsomes (in vitro t1/2); assay type: in vitro ADME; conditions: rat liver microsomes 0.5 mg/mL, 2 μM compound, % remaining at 60 min
Procedure: as §1

[3] = Metabolic stability in mouse liver microsomes (in vitro t1/2); assay type: in vitro ADME; conditions: mouse liver microsomes 0.5 mg/mL, 2 μM compound; for Mouse microsome % 60 min: % remaining at 60 min; for Mouse microsome t1/2, min: in vitro t1/2
Procedure: as §1

[4] = Pharmacokinetic assay in rat (IV 3 mg/kg, PO 10 mg/kg); assay type: in vivo; conditions: male, Sprague-Dawley, plasma, read-out: Rat F (%)
Excerpt: Pharmacokinetic Assays in Mouse and Rat
The following are assays that may be used to evaluate the pharmacokinetic properties of Formula (I) in mouse or rat. The assays follow a common procedure recited below.
1. […] For PO (oral gavage), DMSO/PEG400 (10:90). Formulations freshly prepared on the day of dosing or prior to dosing. Storage at room temperature.
2. Test Species: For Mouse: Male CD1 strain, approximately 6-8 weeks in age, approximately 20-30 g. For Rat: Male Sprague-Dawley strain, approximately 6-8 weeks in age, approximately 200-300 g.
3. Dose Level: For IV, 3 mg/kg. For PO, 10 mg/kg.
4. Number of animals: 3 per assay.
5. PK time points: For IV (plasma): 5 min, 15 min, 1, 2, 4, 6, 8, 24 h post dose. For PO (plasma): 15 min, 30 min, 1, 2, 4, 6, 8, 24 h post dose.
6. Blood Sample Collection and Processing. Blood was collected (˜0.2 mL per time point) from jugular vein. Blood of each sample was transferred into plastic micro centrifuge tubes containing anticoagulant of EDTA-K2. Blood samples were centrifuged at 2,000 g for 5 minutes at 4° C. to obtain plasma.
7. Samples Analysis: Plasma samples were analyzed using LC/MS/MS method, and pharmacokinetic parameters (half-life: t1/2; oral bioavailability: F; volume of distribution: Vss).

CFA-induced arthritis [5] = experiment: Adjuvant-induced arthritis model in rat: Difference of Weight Bearing test (DWB); assay type: in vivo; conditions: SD rat, PO 3 days post CFA, compared to dexamethasone
CFA-induced arthritis [6] = experiment: Adjuvant-induced arthritis model in rat: Mechanical Allodynia test (MA); assay type: in vivo; conditions: SD rat, PO 3 days post CFA, compared to dexamethasone

Structure (SMILES) | Human microsome % 60 min [1] [%] | Rat microsome % 60 min [2] [%] | Mouse microsome % 60 min [3] [%] | Mouse microsome t1/2, min [3] | bioavailability [4] [%] | Human microsome t1/2, min [1] | Difference in Weight Bearing, Minimal Efficacious Dose (CFA-induced arthritis [5]) [mg/kg] | Mechanical Allodynia (Von Frey), Minimal Efficacious Dose (CFA-induced arthritis [6]) [mg/kg]
Cc1ccccc1-n1nc(COC(C)(C)C(=O)O)cc1-c1cccc(OC2CCC2)c1 [Example 161, 2-([5-(3-Cyclobutoxyphenyl)-1-(2-methylphenyl)-1H-pyrazol-3-yl]-methoxy)-2-methylpropanoic acid] | 82 | 80 | 99 | ∞ | 61 |  | ≤10 | ≤10
CC(C)(OCc1cc(-c2cccc(OC3CCC3)c2)n(-c2ccccc2Cl)n1)C(=O)O [Example 175, 2-([1-(2-Chlorophenyl)-5-(3-cyclo-butoxyphenyl)-1H-pyrazol-3-yl]-methoxy)-2-methylpropanoic acid] | 83 | 87 | 94 |  | 48 |  | >10 | >10
COc1cc(OC)cc(-c2cc(COC(C)(C)C(=O)O)nn2-c2ccccc2Cl)c1 [Example 179, 2-([1-(2-Chlorophenyl)-5-(3,5-dimethoxyphenyl)-1H-pyrazol-3-yl]-methoxy)-2-methylpropanoic acid] | 93 | 85 | 98 | ∞ | 76 |  | ≤10 | ≤10
CCOc1cc(OCC)cc(-c2cc(COC(C)(C)C(=O)O)nn2-c2ccccc2Cl)c1 [Example 180, 2-([1-(2-Chlorophenyl)-5-(3,5-diethoxy-phenyl)-1H-pyrazol-3-yl]methoxy)-2-methylpropanoic acid] | 88 | 98 |  | ∞ | 49 |  | >10 | >10
Cc1ccccc1-n1nc(COC(C)(C)C(=O)O)cc1-c1cccc(OC2CC2)c1 [Example 188, 2-([5-(3-Cyclopropoxyphenyl)-1-(2-methylphenyl)-1H-pyrazol-3-yl]-methoxy)-2-methylpropanoic acid] |  | 87 | 92 |  |  | ∞ |  | 
Cn1ncc2cccc(-n3nc(COC(C)(C)C(=O)O)cc3-c3cccc(OC4CC4)c3)c21 [Example 191, 2-([5-(3-Cyclopropoxyphenyl)-1-(1-methyl-1H-indazol-7-yl)-1H-pyrazol-3-yl]methoxy)-2-methylpropanoic acid] | 98 | 94 | 97 |  | 97 |  | >10 | >10
CCOc1ccccc1Cn1nc(COC(C)(C)C(=O)O)cc1-c1cc(Cl)cc(OC)c1 [Example 196, 2-([5-(3-Chloro-5-methoxyphenyl)-1-[(2-ethoxyphenyl)methyl]-1H-pyrazol-3-yl]methoxy)-2-methylpropanoic acid] | 62 | 32 | 33 |  |  |  |  | 
CCOc1ccccc1Cn1nc(COC(C)(C)C(=O)O)cc1-c1ccc2cnn(CC)c2c1 [Example 198, 2-([1-[(2-Ethoxyphenyl)methyl]-5-(1-ethyl-1H-indazol-6-yl)-1H-pyrazol-3-yl]methoxy)-2-methylpropanoic acid] | 80 | 82 | 84 |  |  |  |  | 
CCOc1ccccc1Cn1nc(COC(C)(C)C(=O)O)cc1-c1cccc(OC2CC2)c1 [Example 201, 2-([5-(3-Cyclopropoxyphenyl)-1-[(2-ethoxyphenyl)methyl]-1H-pyrazol-3-yl]-methoxy)-2-methylpropanoic acid] | 58 | 39 | 58 |  |  |  |  | 
CC(C)(OCc1cc(-c2cccc(OC3CC3)c2)n(Cc2ccccc2N2CCCC2)n1)C(=O)O [Example 202, 2-([5-(3-Cyclopropoxyphenyl)-1-[[2-(pyrrolidin-1-yl)phenyl]methyl]-1H-pyrazol-3-yl]methoxy)-2-methylpropanoic acid] | 32 | 2 | 32 |  |  |  |  | 

The next lines start with results.

Human microsome % 60 min [1] [%] | Rat microsome % 60 min [2] [%] | Mouse microsome % 60 min [3] [%] | Mouse microsome t1/2, min [3] | bioavailability [4] [%] | Human microsome t1/2, min [1] | Structure (SMILES) | Difference in Weight Bearing, Minimal Efficacious Dose (CFA-induced arthritis [5]) [mg/kg] | Mechanical Allodynia (Von Frey), Minimal Efficacious Dose (CFA-induced arthritis [6]) [mg/kg]
56 | 33 | 34 |  |  |  | CC(C)(OCc1cc(-c2cccc(OC3CC3)c2)n(-c2ccccc2N2CCCC2)n1)C(=O)O [Example 221, 2-([5-(3-Cyclopropoxyphenyl)-1-[2-(pyrrolidin-1-yl)phenyl]-1H-pyrazol-3-yl]methoxy)-2-methylpropanoic acid] |  | 
110 | 90 | 94 |  |  | ∞ | CC[C@@](C)(OCc1cc(-c2cc(OC)cc(OC)c2)n(-c2ccccc2Cl)n1)C(=O)O [Example 222, (2R)-2-([1-(2-Chlorophenyl)-5-(3,5-dimethoxyphenyl)-1H-pyrazol-3-yl]-methoxy)-2-methylbutanoic acid] |  | 
95 | 88 | 95 |  |  |  | Cn1ncc2ccc(-c3cc(COC(C)(C)C(=O)O)nn3Cc3ccccc3Cl)cc21 [Example 226, 2-([1-[(2-Chlorophenyl)methyl]-5-(1-methyl-1H-indazol-6-yl)-1H-pyrazol-3-yl]methoxy)-2-methylpropanoic acid] |  | 
88 | 88 | 97 |  |  |  | CCOc1cccc(-n2nc(COC(C)(C)C(=O)O)cc2-c2cc(OC)cc(OC)c2)c1 [Example 243, 2-([5-(3,5-Dimethoxyphenyl)-1-(3-ethoxyphenyl)-1H-pyrazol-3-yl]-methoxy)-2-methylpropanoic acid] |  | 
65 | 69 | 81 |  | 52 |  | CCCn1ncc2ccc(-c3cc(COC(C)(C)C(=O)O)nn3-c3ccccc3N3CCC3)cc21 [Example 246, 2-([1-[2-(Azetidin-1-yl)phenyl]-5-(1-propyl-1H-indazol-6-yl)-1H-pyrazol-3-yl]methoxy)-2-methylpropanoic acid] |  | 
77 | 83 | 63 |  | 98 |  | COc1cc(OC)cc(-c2cc(COC(C)(C)C(=O)O)nn2-c2ccccc2N2CCC2)c1 [Example 251, 2-((1-(2-(Azelidin-1-yl)phenyl)-5-(3,5-dimethoxyphenyl)-1H-pyrazol-3-yl)methoxy)-2-methylpropanoic acid] |  | 

Reference: patent US11292767B2, “Heterocyclic inhibitors of MCT4” (Vettore, LLC, priority 2016, dated 2022)
